Measurements as given in publication PMC6136660 (Steroids, 2018).

Tested on: white blood cells and subsets (lymphocytes, neutrophils, eosinophils)
Assay: Differential white blood cell counts (immune suppression), MAD
Format: in vivo, human
Conditions: for Eosinophils: mean; for Lymphocytes / Neutrophil cell counts / White blood cells counts: mean±SEM, in 10^9/L (unit assumed)
Experimental: A single dose of pharmacological glucocorticoids results in rapid changes in peripheral blood white cell counts, with increased neutrophils, and decreased lymphocytes. Increases of neutrophils are from release from peripheral tissues, whereas loss of lymphocytes is due to induction of apoptosis. Differential white blood cell counts were studied in all Phase 1 MAD subjects. […]
placebo. White blood cells and subsets (lymphocytes, neutrophils, eosinophils) were measured at screening, day -1, pre-dose on days 1-14, day 17, and at follow-up (recovery). Day 1 (pre-dose), Day 2 (24 hr after first dose), Day 14 and follow-up (recovery) time points are graphed […]

[1] = MAD 9.0 mg/kg, Day 1 predose, baseline
[2] = MAD 9.0 mg/kg, Day 17 (3 days after last dose)
[3] = MAD 9.0 mg/kg, Day 21 follow-up
[4] = MAD 9.0 mg/kg, Day -1, baseline
[5] = MAD 9.0 mg/kg, Screening, baseline
[6] = MAD 20.0 mg/kg, Day 1 predose, baseline
[7] = MAD 20.0 mg/kg, Day 17 (3 days after last dose)
[8] = MAD 20.0 mg/kg, Day 21 follow-up
[9] = MAD 20.0 mg/kg, Day -1, baseline
[10] = MAD 20.0 mg/kg, Screening, baseline

In the case of `C[C@@H]1C[C@H]2[C@@H]3CCC4=CC(=O)C=C[C@]4(C)C3=CC[C@]2(C)[C@@]1(O)C(=O)CO` [vamorolone], the Eosinophils [1] was 0.1 10^9/L, the Lymphocytes [1] was 1.8 ± 0.4 and the Neutrophil cell counts [1] was 2.9 ± 0.9. The “White blood cells counts” value [1] was 5.2 ± 1.1, the Eosinophils (MAD 9.0 mg/kg, Day 2 predose) was 0.13 10^9/L and the Lymphocytes (MAD 9.0 mg/kg, Day 2 predose) was 2.5 ± 0.7. For the same compound, the Neutrophil cell counts (MAD 9.0 mg/kg, Day 2 predose) was 3.7 ± 1.1, the “White blood cells counts” value (MAD 9.0 mg/kg, Day 2 predose) was 6.7 ± 1.2 and the Eosinophils (MAD 9.0 mg/kg, Day 3 predose) was 0.1 10^9/L. For the same compound, the Lymphocytes (MAD 9.0 mg/kg, Day 3 predose) was 2.7 ± 0.7, the Neutrophil cell counts (MAD 9.0 mg/kg, Day 3 predose) was 3.6 ± 0.7 and the “White blood cells counts” value (MAD 9.0 mg/kg, Day 3 predose) was 6.8 ± 1.0. For the same compound, the Eosinophils (MAD 9.0 mg/kg, Day 7 predose) was 0.1 10^9/L, the Lymphocytes (MAD 9.0 mg/kg, Day 7 predose) was 2.6 ± 0.6 and the Neutrophil cell counts (MAD 9.0 mg/kg, Day 7 predose) was 3.4 ± 1.0. The “White blood cells counts” value (MAD 9.0 mg/kg, Day 7 predose) was 6.6 ± 1.3, the Eosinophils (MAD 9.0 mg/kg, Day 12 predose) was 0.12 10^9/L and the Lymphocytes (MAD 9.0 mg/kg, Day 12 predose) was 2.8 ± 0.6. The Neutrophil cell counts (MAD 9.0 mg/kg, Day 12 predose) was 3.5 ± 0.9, the “White blood cells counts” value (MAD 9.0 mg/kg, Day 12 predose) was 6.8 ± 0.9 and the Eosinophils (MAD 9.0 mg/kg, Day 14 predose) was 0.13 10^9/L. For the same compound, the Lymphocytes (MAD 9.0 mg/kg, Day 14 predose) was 2.6 ± 0.6, the Neutrophil cell counts (MAD 9.0 mg/kg, Day 14 predose) was 3.6 ± 1.0 and the “White blood cells counts” value (MAD 9.0 mg/kg, Day 14 predose) was 6.8 ± 1.3. The Eosinophils [2] was 0.08 10^9/L, the Lymphocytes [2] was 1.9 ± 0.5 and the Neutrophil cell counts [2] was 3.1 ± 0.7. For the same compound, the “White blood cells counts” value [2] was 5.5 ± 0.7, the Eosinophils [3] was 0.12 10^9/L and the Lymphocytes [3] was 1.8 ± 0.7. The Neutrophil cell counts [3] was 2.9 ± 1.0, the “White blood cells counts” value [3] was 5.2 ± 1.1 and the Eosinophils [4] was 0.12 10^9/L. For the same compound, the Lymphocytes [4] was 2.1 ± 0.7, the Neutrophil cell counts [4] was 2.9 ± 0.6 and the “White blood cells counts” value [4] was 5.5 ± 1.1. For the same compound, the Eosinophils [5] was 0.1 10^9/L, the Lymphocytes [5] was 1.7 ± 0.5 and the Neutrophil cell counts [5] was 3.0 ± 1.0. The “White blood cells counts” value [5] was 5.2 ± 1.3, the Eosinophils [6] was 0.28 10^9/L and the Lymphocytes [6] was 2.2 ± 0.6. For the same compound, the Neutrophil cell counts [6] was 3.4 ± 1.1, the “White blood cells counts” value [6] was 6.3 ± 1.4 and the Eosinophils (MAD 20.0 mg/kg, Day 2 predose) was 0.17 10^9/L. The Lymphocytes (MAD 20.0 mg/kg, Day 2 predose) was 2.9 ± 0.8, the Neutrophil cell counts (MAD 20.0 mg/kg, Day 2 predose) was 4.5 ± 1.2 and the “White blood cells counts” value (MAD 20.0 mg/kg, Day 2 predose) was 8.0 ± 1.3. The Eosinophils (MAD 20.0 mg/kg, Day 3 predose) was 0.15 10^9/L, the Lymphocytes (MAD 20.0 mg/kg, Day 3 predose) was 2.9 ± 0.7 and the Neutrophil cell counts (MAD 20.0 mg/kg, Day 3 predose) was 4.3 ± 1.2. The “White blood cells counts” value (MAD 20.0 mg/kg, Day 3 predose) was 7.9 ± 0.7, the Eosinophils (MAD 20.0 mg/kg, Day 7 predose) was 0.15 10^9/L and the Lymphocytes (MAD 20.0 mg/kg, Day 7 predose) was 3.2 ± 0.9. For the same compound, the Neutrophil cell counts (MAD 20.0 mg/kg, Day 7 predose) was 4.4 ± 0.7, the “White blood cells counts” value (MAD 20.0 mg/kg, Day 7 predose) was 8.2 ± 1.0 and the Eosinophils (MAD 20.0 mg/kg, Day 12 predose) was 0.12 10^9/L. For the same compound, the Lymphocytes (MAD 20.0 mg/kg, Day 12 predose) was 3.2 ± 0.4, the Neutrophil cell counts (MAD 20.0 mg/kg, Day 12 predose) was 4.4 ± 0.4 and the “White blood cells counts” value (MAD 20.0 mg/kg, Day 12 predose) was 8.3 ± 0.5. The Eosinophils (MAD 20.0 mg/kg, Day 14 predose) was 0.16 10^9/L, the Lymphocytes (MAD 20.0 mg/kg, Day 14 predose) was 3.1 ± 0.4 and the Neutrophil cell counts (MAD 20.0 mg/kg, Day 14 predose) was 4.6 ± 0.4. For the same compound, the “White blood cells counts” value (MAD 20.0 mg/kg, Day 14 predose) was 8.5 ± 0.4, the Eosinophils [7] was 0.16 10^9/L and the Lymphocytes [7] was 2.2 ± 0.3. The Neutrophil cell counts [7] was 4.0 ± 0.3, the “White blood cells counts” value [7] was 6.8 ± 0.2 and the Eosinophils [8] was 0.26 10^9/L. For the same compound, the Lymphocytes [8] was 2.2 ± 0.3, the Neutrophil cell counts [8] was 4.0 ± 0.3 and the “White blood cells counts” value [8] was 6.8 ± 0.4. For the same compound, the Eosinophils [9] was 0.32 10^9/L, the Lymphocytes [9] was 2.6 ± 0.5 and the Neutrophil cell counts [9] was 3.9 ± 1.1. The “White blood cells counts” value [9] was 7.3 ± 1.1, the Eosinophils [10] was 0.25 10^9/L and the Lymphocytes [10] was 2.0 ± 0.5. The Neutrophil cell counts [10] was 3.5 ± 1.2, the “White blood cells counts” value [10] was 6.1 ± 1.1 and the “white blood cell counts” value (any MAD dose group) was “No significant changes”.
